Measured values: patent US11447534B2, “Peptide complex with immunodulatory and anti-inflammatory function” (NATIONAL INSTITUTE OF IMMUNOLOGY, priority 2018, dated 2022)
Entries after “also recorded” stand apart in the source; their conditions may differ.

Key:
RAW264.7 macrophages [1] = experiment: Lactate dehydrogenase (LDH) assay in macrophages; format: cell-based, murine; conditions: macrophages, serum starved, 1 hour
Procedure: Effect of Abeta-Glu-OC (3 ng) mixture on macrophage integrity: To determine whether the mixture produced any toxicity lactate dehydrogenase (LDH) assay was performed. Briefly, the cells were incubated with the mixture under serum starved conditions for 1 hour followed by LDH assay. LDH was assayed using In vitro toxicology assay kit from Sigma-Aldrich, St. Louis, Mo., USA (cat. no.-TOX7) as per the manufacturer's directions. LDH assay substrate solution, LDH assay dye solution and 1×LDH assay cofactor were provided with the kit. […] To this LDH assay mixture was added and incubated at room temperature in the dark for 20-30 min. The reaction was terminated by the addition of 1/10 volume of 1N HCl. Absorption was taken 490 nm with the help of in a Tecan Microplate reader, Switzerland with Magellan™ software.

[2] = tested on: carrageenan induced paw edema; experiment: Carrageenan induced paw inflammation in mice; format: in vivo, mouse; conditions: Ibuprofen 100 mg/kg, 5th hour
Procedure: The effect of A-O complex was tested under in vivo conditions. Carrageenan, an inflammation inducing agent was injected into the hind foot pad of mouse to induce acute inflammation. The edema attains peak at around 3 hours post carrageenan challenge. This is a convenient model to assess the anti-inflammatory potency of test drugs to reduce or prevent the development of swelling. The protocol followed herein is as per Morris (2003) [Morris C J, 2003, Carrageenan induced paw edema in rat and mouse. In: Winyard P. G., Willoughby D. A. (eds) Inflammation Protocols. Methods in Molecular Biology, Vol 225. Humana Press. Pp 115-121].
Preparation of carrageenan: To prepare 0.5% of carrageenan solution, 50 mg of lamda-carrageenan ([…], Sigma Chemical Co., St. Louis, Mo., USA) was slowly added onto a small beaker containing 10 ml of normal saline. The powder was allowed to swell for some time and then slightly heated (not boiled) to dissolve the carrageenan. The solution was stirred during the heating. Once dissolved, the solution was cooled and aliquoted and stored at 4 degree Celsius.
Method: For experiment, the mice were acclimatized in cages under standard light and temperature settings with access to food and water ad libitum. Mice were acclimatized for 1 week in respective cages to minimize stress. At the day of experiment, mice were placed in a temporary animal restraint and 50 microlitre of carrageenan solution was administered by intraplantar injection to the right hind paw of each mouse. The left paw served as control and was administered 50 microlitre of normal saline.
To determine the efficacy of A-O complex different concentrations of complex viz. 5, 20 and 50 microgram per 100 g body weight of mice were administered intraperitoneally 1 hour before carrageenan challenge. Ibuprofen (100 mg/kg, Sigma Chemical Co., St. Louis, Mo., USA) served as positive control for the experiment. Paw size was measured by wrapping a piece of cotton thread round the paw of each […] and recording the length of the thread, the paw circumference, by use of a metric ruler. Paws were measured immediately before and at specified time points after carrageenan injection. Inhibitory activity was calculated at 1-5 h after carrageenan injection with the following formula: % Inhibition=[(Ct−C0)control−(Ct−C0)treated]/(Ct−C0)control×100, where Ct is paw size after carrageenan injection and C0 is paw size before carrageenan injection.

5×FAD Tg mice [3] = experiment: Brain amyloid pathology by Congo Red staining and fibrillar Abeta42 immunostaining; format: in vivo, mouse; conditions: for amyloid pathology / deposits in brain (Congo Red): 300 ng per mouse subcutaneously for 2 months
Procedure: (§1) Two month old 5×FAD Tg mice, both male as well as female were used for the study. For the purposes of this study wild type mice is referred to as Wt and 5×FAD mice is referred to as Tg. For experimentation, the mice were divided in below groups for treatment: 1. Wild type mice given vehicle (1×PBS or phosphate buffered saline; pH 7.4). 2. 5×FAD Transgenic mice given vehicle. 3. 5×FAD Transgenic mice given undercarboxylated osteocalcin (Glu-OC) subcutaneously at dose of 300 ng per mouse of weight ranging from 25-28 g for 2 months.
(§2) For immunohistochemistry, sacrificed animals were perfused using 4% paraformaldehyde perfusion through the heart and the brains were harvested and submerged in the same fixative for not more than 24 hours. Brains were then washed in 1×PBS (pH 7.4) and placed in 30% sucrose-PBS solution where these initially floated owing to the weight of the sucrose. Upon saturation, the brains sank to the bottom of the sucrose solution. These were then removed and washed in PBS. Brain samples were quick frozen in liquid nitrogen and then embedded in polyfreeze tissue freezing medium in a plastic mould inside a cryostat where in temperature was −20° C. The samples were then stored in −80° C. until sectioning. Sections of 15-20 micrometre was cut in a cryostat and laid over high adsorbent microslides. For unmasking antigens, slides were heated at 55° C. for 10 min followed by hydration in PBS for 5 min and then permeabilization using 0.1% Triton X-100 in PBS containing 1% BSA and 1% normal goat serum (IHC buffer). For immunostaining, brain sections were incubated in primary antibodies (fibrillar Amyloid beta antibody, catalogue number MABN638 was from Millipore-Merk; osteocalcin antibody-catalogue number sc365797 was from Santa Cruz Biotechnology; Abeta1-42 antibody D923A #14974 was from Cell Signaling Technology) diluted in IHC buffer in a humidified chamber at room temperature overnight. For double immunostaining, specific antibodies against Abets42 and osteocalcin were incubated together with brain sections. […]

5×FAD Tg mice [4] = experiment: ELISA of soluble and insoluble Abeta42 in brain; format: in vivo, mouse; conditions: vs 5×FAD Tg control
Procedure: as §1
as §2, with “sections. After rinsing with PBS three times for 5 min each, sections were incubated with the appropriate secondary antibody conjugated with AlexaFluor 594 or 488 (Molecular Probes, Invitrogen) for 2 h at room temperature. After rinsing with PBS, the coverslips were mounted with ProLong anti-fade mounting medium containing 4′,6-diamidino-2-phenylindole (DAPI) and imaged. Congo Red staining was done using staining kit from Abcam (ab150663) according to manufacturer's instructions. ELISA or enzyme linked immunosorbent assay was conducted on soluble and insoluble fractions prepared from brain samples. (a.) Preparation of soluble or DEA fraction or non-plaque associated Abeta.” for “sections.”

5×FAD Tg mice [5] = experiment: Morris water maze test in 5×FAD Tg mice; format: in vivo; conditions: 300 ng per mouse subcutaneously for 2 months, vs 5×FAD Tg control
Procedure: as §1
Glu-OC at a dose of 300 ng per mouse was administered subcutaneously for 2 months. To evaluate the potential of Glu-OC against development of Alzheimer's disease in 5×FAD Tg mice (a mouse model for Alzheimer's disease), the following methodologies used conducted: Morris water maze (MWM) test, immunohistochemistry, double immunostaining, ELISA and Congo Red staining. […] The training was given for the five consecutive days, with the video recording and the track of the animal was also recorded using the Any-maze animal behaviour software. Time taken to find the hidden platform is calculated and plotted.

Abeta42 = target: T1, Abeta42 (Homo sapiens, UniProt P05067); experiment: Abeta42 fibrillization in situ (TEM, Thioflavin T binding assay); format: biochemical
T1 construct: of Abeta 1-42 peptide; Molecular weight = 4514.1; purchased r-peptide
T1 sequence (P05067 672-713): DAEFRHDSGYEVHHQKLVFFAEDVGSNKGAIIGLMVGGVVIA
Procedure: For this study, different concentrations of Glu-OC viz. […] After keeping the samples for 5 minutes, the excess was washed off with ultrapure water and surplus sample and water were wicked away using absorbent paper. The samples were negatively stained using 1% uranyl acetate stain, dried and analyzed in a transmission electron microscope CM10 Philips operated at 80 kV. […] ThT assay measures the changes in fluorescence intensity of ThT upon binding to amyloid fibrils. […] The resulting ThT fluorescence intensities of samples were measured at an emission wavelength of 480 nm and excitation wavelength of 440 nm and 5 nm slit width using a Jobin Vyon Horiba Fluoromax-4 spectrofluorimeter. The inner filter effect was taken into account using the Equation: Fc=F×anti log[(Aex+Aem)/2] where Fc is the corrected flourescence and F is apparent fluorescence, Aex and Aem are the absorbances of the samples at excitation and emission wavelengths respectively.

RAW264.7 macrophages [6] = experiment: qPCR of Cd74, Cd36 in serum starved macrophages; format: cell-based, murine; conditions: unstimulated RAW264.7 macrophages, with respect to basal

OO [H2O2, hydrogen peroxide]
LDH in cell culture supernatants (LDH release) (RAW264.7 macrophages [1]): induces LDH release | intracellular LDH (RAW264.7 macrophages [1]; vs control): rise in intracellular LDH

CC(C)Cc1ccc(C(C)C(=O)O)cc1 (stereo not drawn) [Positive control, Ibuprofen, reference compound]
edema inhibition [2]: 78%

undercarboxylated osteocalcin [Glu-OC]
amyloid pathology / deposits in brain (Congo Red) (5×FAD Tg mice [3]): significant reduction in amyloid pathology | amyloid pathology / deposits in brain (Congo Red) (5×FAD Tg mice [3]; listed as Gla-OC): lesser amyloid deposits | fibrillar Abeta42 immunostaining of brain (5×FAD Tg mice [3]; fibrillar specific Abeta42 antibody): fewer yet larger Abeta42+ fibrillar amyloid deposits; also recorded: positive for intense fibrillar Abeta42 structures | insoluble (plaque associated) Abeta42 level in brain (5×FAD Tg mice [4]): reduced | soluble Abeta42 level in brain (5×FAD Tg mice [4]): increased | insoluble (plaque associated) Abeta42 level in brain (5×FAD Tg mice [4]; listed as Gla-OC): significantly reduced | soluble Abeta42 level in brain (5×FAD Tg mice [4]; listed as Gla-OC): significantly increased | escape latency (Morris water maze) (5×FAD Tg mice [5]): lower escape latency; also recorded: reduced escape latency | Abeta42 fibrillization (TEM) (Abeta42; Abeta42 100 micromolar with 3 ng of osteocalcin): Mature fibrils | Abeta42 fibrillization (TEM) (Abeta42; Abeta42 100 micromolar, Glu-OC 3-10 ng or none, 1×PBS pH 7.4, 37° C., 8 hours): demonstrated fibrillization | increase in mRNA level of Cd36 (RAW264.7 macrophages [6]): do not elicit induction | increase in mRNA level of Cd74 (MHC-II) (RAW264.7 macrophages [6]): do not elicit induction
